We go through five molecules from patent publication US12152048B2, “Nitroxoline prodrug and use thereof” (Jiangsu Yahong Meditech Co., Ltd., priority 2018, dated 2024).

Converted amounts (≈) assume the structure as drawn.

A short description of data set [1]: Determination of water solubility in phosphate buffer. Format: physicochemical. As to conditions: for solubility at 24 h: thermodynamic from solid. In short, it runs like this:
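2 mg solid compound shaken in 500 μL phosphate buffer (pH 1.2, 4.5, 6.8 or 7.4) in a sealed flask, room temperature, 24 h. Suspension vacuum-filtered; dissolved concentration in filtrate quantified by LC/MS/MS.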

Data set [2] in a line: Stability in mouse liver microsome. Format: in vitro ADME. The following applies: 2 μM, 37° C., 30 minutes.
Data set [3] is described as follows: Pharmacokinetics assay in dog (nitroxoline concentration in plasma after single intravenous or oral administration). Format: in vivo, beagle dog. The following applies: for AUC0-inf: nitroxoline in beagle dog plasma. An excerpt: Nitroxoline is mainly metabolized by the phase II metabolism in liver with a fast metabolism rate, so it has a short half-life in the body. The present invention modified its structure and 13 compounds of formula (I) were obtained through chemical synthesis. The change of nitroxoline concentration in dog plasma after a single intravenous or oral administration of nitroxoline and the compound of formula (I) was studied to evaluate the pharmacokinetic behavior of nitroxoline and the compound of formula (I) in dog body.
Male beagle dog (Beijing Marshall Biotechnology Co., Ltd., Certificate No.: SCXK (BJ) 2016-0001, Qualified number: 11400600001728), 3 dogs per group, weight 10 to 13 kg, 20 to 22 months old. The dogs were fasted overnight before the administration with free access to water, and fed 4 hours after the administration. The test compound was added to an EP tube, and then added with DMSO, solutol and sterilized water for injection (the volume ratio of the three was 1:2:17, v:v:v). The EP tube was subjected to ultrasound for 20 minutes to make the test compound dissolve well (compound concentration: 0.005 mmol/mL). The dose for intravenous administration was 0.01 mmol/kg, and the dose for oral administration was 0.1 mmol/kg. 0.3 ml of whole blood was collected from jugular vein before the administration (0 hour) and 0.0833, 0.25, 0.5, 1, 2, 4, 6, 8, 10 and 12 hours after the administration (sampling points can be adjusted according to the specific situation) respectively. The blood sample was placed in a centrifuge tube containing EDTA-K2 anticoagulant (Aldrich), and the centrifuge tube was left to stand in ice. The blood sample was centrifuged for 10 minutes at 1530 g within 0.5 hour to obtain all clean plasma. The plasma was placed in another clean centrifuge tube, and stored in a refrigerator at −20° C. for later use.
Solution for standard curve was formulated. 1000 μL of internal standard working solution (containing a solution of verapamil (5 ng/mL, Aldrich), glibenclamide (50 ng/mL, Aldrich) and diclofenac (50 ng/mL, Aldrich) in acetonitrile) was added to 10 μL of the solution for standard curve and sample, and the mixture was shaked by vortex for 5 minutes. The mixture was centrifuged for 10 minutes at 4° C., 3700 rpm. 60 μL of the supernatant were placed in an injection tube, and mixed with 120 μL of water. 10 μL of the solution were injected into the liquid chromatography-mass spectrometry system for determination. The pharmacokinetic parameters were calculated by the WinNonlin V 6.2 non-compartmental model.

Data set [4] is described as follows: Stability in dog liver microsome. The following applies: 2 μM, 37° C., 30 minutes. (Liver microsomes are a subcellular fraction often used to study metabolism.)
Data set [5] is described as follows: Stability in rat liver microsome. As to conditions: 2 μM, 37° C., 30 minutes.
Procedure: (§1) Experimental instruments: thermostatic shaker (SHA-B, Guohua Electric Appliance Co., Ltd.); centrifuge (5810R, Eppendorf); mass spectrometry (API4000, Applied Biosystems, USA); liquid chromatography (LC-30AD, Shimadzu); sample injector (CTC Analytics AG System, CTC).
(§2) Experimental process: 25 μg/mL alamethicin (Aldrich), 5 mM magnesium chloride and 0.5 mg/mL microsome (XENOTECH) were added to 100 mM phosphate buffer to obtain a coenzyme-free reaction solution. A portion of the coenzyme-free reaction solution was added with 1 mM reductive nicotinamide adenine dinucleotide phosphate (Aldrich) and 5 mM uridine diphosphate glucuronic acid (Aldrich) to obtain a coenzyme-containing reaction solution. The working solution of the compound of the present invention was added to the two reaction solutions so that the final concentration of the compound was 2 μM. Immediately after mixing well, 50 μL of the solution were taken out as the 0 minute sample, and 50 μL of the remaining sample were taken out after incubating at 37° C. for 30 minutes. All the samples taken out were immediately processed to precipitate protein, and centrifuged to obtain a supernate for the determination of the compound concentration by LC/MS/MS.
The nature of data set [6]: Stability in human liver microsome. The following applies: 2 μM, 37° C., 30 minutes.
Procedure: as §1, §2
Another data set in a line: Stability in dog plasma. Format: in vitro ADME.
The nature of data set [7]: Stability in human plasma.
Source text: (§3) Experimental instruments: thermostatic shaker (SHA-B, Guohua Electric Appliance Co., Ltd.); centrifuge (5810R, Eppendorf); mass spectrometry (AP4000, Applied Biosystems, USA); liquid chromatography (LC-30AD, Shimadzu); sample injector (CTC Analytics AG System, CTC).
(§4) Test animals: plasma of human (batch number: BRH1343165), rat (batch number: RAT336728), mouse (batch number: MSE280000), dog (batch number: BGL99137) and monkey (batch number: PH-Monkey-20180821) are purchased from Shanghai Sixin Biological Technology Co., Ltd.
(§5) Experimental process: the compound of the present invention was dissolved in an organic solvent to obtain a 1 mM working solution. 3 μL of the working solution were added to 597 μL of pre-incubated human or rat plasma and mixed well. 50 μL of the solution were immediately taken out as the 0 minute sample. The remaining sample was incubated at 37° C., and 50 μL of sample were taken out at 15, 30, 60 and 120 minutes respectively. All the samples taken out were immediately processed to precipitate protein, and centrifuged to obtain a supermate for the determination of the compound concentration by LC/MS/MS.
The nature of data set [8]: Stability in plasma, overall conclusion (species not stated). The following applies: conclusion in words.
Where [9] appears, read: aqueous buffer, phosphate buffer pH 7.4, room temperature.

Source text for Stability in dog plasma: as §3, §4, §5

With `CC(C)C(=O)N1CCC[C@H]1C(=O)OCOc1ccc([N+](=O)[O-])c2cccnc12` [Compound 20, (S)-(5-nitroquinolin-8-yloxy)methyl 1-isopropionylpyrrolidine-2-carboxylate], the solubility at 24 h is 1050 µg/mL (≈ 2700 µM) in data set [1] (aqueous buffer, phosphate buffer pH 4.5, room temperature); 962 µg/mL (≈ 2480 µM) in [1] (aqueous buffer, phosphate buffer pH 6.8, room temperature); 978 µg/mL (≈ 2530 µM) in data set [1] (setting [9]); 1010 µg/mL (≈ 2610 µM) in data set [1] (simulated gastric fluid, phosphate buffer pH 1.2, room temperature). Moreover, the “water solubility compared with nitroxoline” value in data set [1] (conclusion in words) is listed as “increased by several times”. The entries for the “Percentage of the compound remaining in mouse liver microsome” value in data set [2] (with coenzyme) and in data set [2] (without coenzyme) were 0.09% and 49.07%, respectively. For the same molecule, the “absorption in beagle dogs compared with nitroxoline” value in [3] (conclusion in words) is reported as “well absorbed”. Moreover, the AUC0-inf in [3] (intravenous administration 0.01 mmol/kg) is 1290 ng*hmL^−1; in data set [3] (oral administration 0.1 mmol/kg) it was 8750 ng*hmL^−1. Moreover, the “Percentage of the compound remaining in dog liver microsome” value was 33.13% in [4] (with coenzyme) and 53.50% in data set [4] (without coenzyme). Further, the “Percentage of the compound remaining in rat liver microsome” value in data set [5] (with coenzyme) is given as 3.64%; in data set [5] (without coenzyme) it was 46.82%. The “Percentage of the compound remaining in human liver microsome” value in data set [6] (with coenzyme) was found to be 26.92%; in data set [6] (without coenzyme), 59.42%.

In the case of `CCC(NC(=O)OCOc1ccc([N+](=O)[O-])c2cccnc12)C(=O)OC` (stereo not shown) [Compound 54, methyl 2-(((5-nitroquinolin-8-yloxy)methoxy)formamido)butanoate], in data set [1] (setting [9]), the solubility at 24 h worked out at 24.4 µg/mL (≈ 67.3 µM). Moreover, the figures for the “Percentage of the compound remaining in mouse liver microsome” value in data set [2] (with coenzyme) and in [2] (without coenzyme) were 9.85% and 31.90%, respectively. For the same molecule, the “Percentage of the compound remaining in plasma” value was found to be 100.0% in the data set “Stability in dog plasma” (0 minute); 100.3% in “Stability in dog plasma” (37° C., 15 minutes); 99.2% in the data set “Stability in dog plasma” (37° C., 30 minutes); 92.4% in the data set “Stability in dog plasma” (37° C., 60 minutes); 74.7% in the data set “Stability in dog plasma” (37° C., 120 minutes); 100.0% in the data set “Stability in rat plasma” (0 minute). Besides, the “Percentage of the compound remaining in plasma” value in “Stability in rat plasma” (37° C., 15 minutes) was found to be 0.0%; in “Stability in rat plasma” (37° C., 30 minutes), 0.0%; in “Stability in rat plasma” (37° C., 60 minutes) it was 0.0%; in the data set “Stability in rat plasma” (37° C., 120 minutes), 0.0%; in data set [7] (0 minute), 100.0%; in data set [7] (37° C., 15 minutes), 108.6%. In addition, the “Percentage of the compound remaining in plasma” value worked out at 103.3% in [7] (37° C., 30 minutes); 93.4% in [7] (37° C., 60 minutes); 71.9% in [7] (37° C., 120 minutes). The results for the “Percentage of the compound remaining in dog liver microsome” value in [4] (with coenzyme) and in [4] (without coenzyme) were 61.38% and 70.31%, respectively. In addition, the results for the “Percentage of the compound remaining in rat liver microsome” value in data set [5] (with coenzyme) and in data set [5] (without coenzyme) were 10.77% and 13.97%, respectively. In addition, the “Percentage of the compound remaining in human liver microsome” value in data set [6] (with coenzyme) was found to be 31.49%; in data set [6] (without coenzyme), 29.40%. Besides, the stability in plasma entry in data set [8] is given as “high stability”.

As for `CCC(C)C(NC(=O)OCOc1ccc([N+](=O)[O-])c2cccnc12)C(=O)OC` (stereo not shown) [Compound 55, methyl 3-methyl-2-(((5-nitroquinolin-8-yloxy)methoxy)formamido)pentanoate], in data set [1] (setting [9]), the solubility at 24 h stood at 15.5 µg/mL (≈ 39.7 µM). The “Percentage of the compound remaining in mouse liver microsome” value in [2] (with coenzyme) came to 2.01%; in data set [2] (without coenzyme) it was 90.39%. Also, the “Percentage of the compound remaining in plasma” value came to 100.0% in “Stability in dog plasma” (0 minute); 99.6% in “Stability in dog plasma” (37° C., 15 minutes); 97.5% in the data set “Stability in dog plasma” (37° C., 30 minutes); 83.3% in the data set “Stability in dog plasma” (37° C., 60 minutes); 70.1% in “Stability in dog plasma” (37° C., 120 minutes); 100.0% in “Stability in rat plasma” (0 minute). The “Percentage of the compound remaining in plasma” value in the data set “Stability in rat plasma” (37° C., 15 minutes) was 48.9%; in the data set “Stability in rat plasma” (37° C., 30 minutes) it was 24.7%; in the data set “Stability in rat plasma” (37° C., 60 minutes), 5.0%; in “Stability in rat plasma” (37° C., 120 minutes) it was 0.3%; in data set [7] (0 minute), 100.0%; in data set [7] (37° C., 15 minutes), 91.3%. Besides, the “Percentage of the compound remaining in plasma” value in data set [7] (37° C., 30 minutes) was 94.5%; in data set [7] (37° C., 60 minutes), 92.1%; in [7] (37° C., 120 minutes) it was 68.7%. Also, the “Percentage of the compound remaining in dog liver microsome” value worked out at 70.73% in data set [4] (with coenzyme) and 84.65% in [4] (without coenzyme). Besides, the “Percentage of the compound remaining in rat liver microsome” value in data set [5] (with coenzyme) came to 8.58%; in [5] (without coenzyme), 52.76%. Moreover, the “Percentage of the compound remaining in human liver microsome” value in [6] (with coenzyme) was determined as 61.24%; in data set [6] (without coenzyme), 81.91%. The stability in plasma result in [8] is reported as “high stability”.

`CCC(C)C(C(=O)OC)N(C)C(=O)OCOc1ccc([N+](=O)[O-])c2cccnc12` (stereo not shown) [Compound 56, methyl 3-methyl-2-(methyl(((5-nitroquinolin-8-yloxy)methoxy)formyl)amino)pentanoate] gave a solubility at 24 h in data set [1] (setting [9]) of 39.8 µg/mL (≈ 98.2 µM). The “Percentage of the compound remaining in mouse liver microsome” value in [2] (with coenzyme) came out at 0.44%; in data set [2] (without coenzyme), 103.05%. Further, the “Percentage of the compound remaining in plasma” value was 100.0% in the data set “Stability in rat plasma” (0 minute); 2.8% in the data set “Stability in rat plasma” (37° C., 15 minutes); 0.1% in “Stability in rat plasma” (37° C., 30 minutes); 0.0% in the data set “Stability in rat plasma” (37° C., 60 minutes); 0.0% in the data set “Stability in rat plasma” (37° C., 120 minutes); 100.0% in data set [7] (0 minute). The “Percentage of the compound remaining in plasma” value was 98.9% in data set [7] (37° C., 15 minutes); 98.2% in data set [7] (37° C., 30 minutes); 103.6% in data set [7] (37° C., 60 minutes); 93.2% in data set [7] (37° C., 120 minutes). The entries for the “Percentage of the compound remaining in dog liver microsome” value in [4] (with coenzyme) and in [4] (without coenzyme) were 14.94% and 118.35%, respectively. Further, the “Percentage of the compound remaining in rat liver microsome” value in [5] (with coenzyme) is on record as 0.45%; in [5] (without coenzyme), 62.17%. The “Percentage of the compound remaining in human liver microsome” value in data set [6] (with coenzyme) is listed as 0.12%; in data set [6] (without coenzyme) it was 71.66%. For the same molecule, the stability in plasma entry in [8] is recorded as “high stability”.

The molecule `COC(=O)CN(C)C(=O)Oc1ccc([N+](=O)[O-])c2cccnc12` [Compound 57, methyl 2-(methyl((5-nitroquinolin-8-yloxy)formyl)amino)acetate] gave a solubility at 24 h in [1] (setting [9]) of 138 µg/mL (≈ 432 µM). Besides, the “Percentage of the compound remaining in mouse liver microsome” value in data set [2] (with coenzyme) is 5.57%; in data set [2] (without coenzyme), 76.69%. Also, the “Percentage of the compound remaining in plasma” value in the data set “Stability in rat plasma” (0 minute) was found to be 100.0%; in the data set “Stability in rat plasma” (37° C., 15 minutes), 0.1%; in “Stability in rat plasma” (37° C., 30 minutes), 0.0%; in the data set “Stability in rat plasma” (37° C., 60 minutes), 0.0%; in the data set “Stability in rat plasma” (37° C., 120 minutes), 0.0%; in data set [7] (0 minute), 100.0%. Moreover, the “Percentage of the compound remaining in plasma” value in [7] (37° C., 15 minutes) amounted to 99.8%; in [7] (37° C., 30 minutes), 93.0%; in data set [7] (37° C., 60 minutes), 76.2%; in data set [7] (37° C., 120 minutes), 60.2%. Moreover, the “Percentage of the compound remaining in dog liver microsome” value in [4] (with coenzyme) is given as 0.03%; in data set [4] (without coenzyme), 75.50%. The “Percentage of the compound remaining in rat liver microsome” value is 23.06% in data set [5] (with coenzyme) and 44.33% in data set [5] (without coenzyme). Further, the “Percentage of the compound remaining in human liver microsome” value in [6] (with coenzyme) was 0.16%; in data set [6] (without coenzyme), 0.15%. Further, the stability in plasma entry in [8] is on record as “high stability”.

The solubility is the dissolved amount per volume that the medium holds. Low readings indicate little dissolved substance, high ones much dissolved substance.
